Data on 59 compounds can be found in patent US8975235B2, “Lysophosphatidic acid receptor antagonists” (InterMune, Inc., priority 2011, dated 2015).

The test deals with Human LPA1 (Homo sapiens, UniProt Q92633). Briefly: Beta-Arrestin based assay for human LPA1R antagonists (PathHunter). The format is cell-based. Further details: host or cells: CHO. Particulars: CHO cells stably expressing ProLink tagged human LPA1R; agonist LPA 0.5 micromolar. The protocol: Beta-Arrestin Based Assays for Human LPA1R Antagonists and Agonists
Chain of Human LPA1 (Q92633 whole entry, the tested form may be a part): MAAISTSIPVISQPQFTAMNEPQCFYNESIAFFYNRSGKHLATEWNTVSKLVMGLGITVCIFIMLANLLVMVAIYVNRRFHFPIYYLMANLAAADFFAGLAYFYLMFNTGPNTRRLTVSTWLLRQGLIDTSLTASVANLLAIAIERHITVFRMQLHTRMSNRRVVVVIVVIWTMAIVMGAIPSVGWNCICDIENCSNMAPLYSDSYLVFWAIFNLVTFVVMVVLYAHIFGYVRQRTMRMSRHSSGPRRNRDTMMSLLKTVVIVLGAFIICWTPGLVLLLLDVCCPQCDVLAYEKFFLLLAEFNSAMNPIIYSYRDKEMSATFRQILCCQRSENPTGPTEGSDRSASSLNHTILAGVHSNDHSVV
A CHO cell line stably expressing the ProLink™ tagged human LPA1R was obtained from DiscoverX Inc, Fremont, Calif. In this system, β-Arrestin was fused to an N-terminal deletion mutant of β-galactosidase (termed the enzyme acceptor or EA), the human LPA1R was fused to a smaller (42 amino acids) weakly complementing fragment termed ProLink™. […] Cell handling and assays were performed according to protocols specified in the PathHunter® assays kits (DiscoverX, Fremont, Calif.). Assays were performed in quadruplicate in white 384 well plates. End point luminescence data were plotted and fit to a 4 parameter logistic function to obtain IC50 values. For antagonist assays, an […] concentration of agonist (LPA) equal to 0.5 micromolar was used.
`Cc1noc(-c2ccc(-c3ccc(C(C(=O)O)c4ccccc4)cc3)cc2)c1NC(=O)O[C@H](C)c1ccccc1Cl` (single isomer, unassigned) [Compound 16]: the EC50 is less than 50 nM. For `Cc1noc(-c2ccc(-c3ccc4c(c3)CCC4C(=O)O)cc2)c1NC(=O)O[C@H](C)c1ccccc1Cl` (single isomer, unassigned) [Compound 26] the value was less than 50 nM; for `Cc1nsc(-c2ccc(-c3ccc(C4(C(=O)O)CC4)cc3)cc2)c1NC(=O)O[C@H](C)C1=C(Cl)CCC1` (single isomer, unassigned) [Compound 216], less than 50 nM.

On to `Cc1nsc(-c2ccc(-c3ccc(C4(C(=O)O)CC4)cc3)cc2)c1NC(=O)O[C@@H](C)C1=C(Cl)CCC1` (single isomer, unassigned) [Compound 217], for which the EC50 was more than 500 nM. As for `CCOC(=O)Cc1ccc(-c2ccc(-c3onc(C)c3NS(=O)(=O)Cc3ccccc3)cc2)cc1` [Compound 15], the figure is more than 500 nM; as for `Cc1noc(-c2ccc(-c3ccc(CC(=O)O)cc3)cc2)c1NS(=O)(=O)Cc1ccccc1` [Compound 17], more than 500 nM. For `CCOC(=O)Cc1ccc(-c2ccc(-c3onc(C)c3NS(=O)(=O)c3ccccc3)cc2)cc1` [Compound 18] the value was more than 500 nM; for `Cc1noc(-c2ccc(-c3ccc4c(c3)CCCC4C(=O)O)cc2)c1NC(=O)O[C@H](C)c1ccccc1Cl` (some centres unmarked) [Compound 21], 50 to 500 nM. In the case of `Cc1noc(-c2ccc(Nc3ccccc3C(=O)O)cc2)c1NC(=O)O[C@H](C)c1ccccc1Cl` [Compound 22], the EC50 was more than 500 nM. As to `Cc1noc(-c2ccc(-c3ccc4c(c3)CCCC4C(=O)O)cc2)c1NC(=O)O[C@H](C)c1ccccc1Cl` (some centres unmarked) [Compound 23], the EC50 lay in the range of 50 to 500 nM.

Regarding `Cc1noc(-c2ccc(-c3ccc4c(c3)CCCC4C(=O)O)cc2)c1NC(=O)O[C@H](C)c1ccccc1Cl` (some centres unmarked) [Compound 24], the EC50 is 50 to 500 nM. As for `Cc1noc(-c2ccc(-c3ccc4c(c3)CCC4C(=O)O)cc2)c1NC(=O)O[C@H](C)c1ccccc1Cl` (some centres unmarked) [Compound 27], the figure is less than 50 nM; as for `C[C@@H](OC(=O)Nc1c(-c2ccc(-c3ccc(CC(=O)O)cc3)cc2)oc2ccccc12)c1ccccc1Cl` [Compound 31], 50 to 500 nM. For the compound `Cc1noc(-c2ccc(-c3ccc(C4(C(=O)O)CN(Cc5ccccc5)C4)cc3)cc2)c1NC(=O)O[C@H](C)c1ccccc1Cl` [Compound 33], the EC50 is less than 50 nM. `Cc1noc(-c2ccc(-c3ccc(C4(C(=O)O)CNC4)cc3)cc2)c1NC(=O)O[C@H](C)c1ccccc1Cl` [Compound 34] showed an EC50 of more than 500 nM. On to `COC(=O)N1CC(C(=O)O)(c2ccc(-c3ccc(-c4onc(C)c4NC(=O)O[C@H](C)c4ccccc4Cl)cc3)cc2)C1` [Compound 37], for which the EC50 is less than 50 nM. As for `Cc1noc(-c2ccc(-c3ccc(C4(C(=O)O)CN(S(C)(=O)=O)C4)cc3)cc2)c1NC(=O)O[C@H](C)c1ccccc1Cl` [Compound 38], the figure is less than 50 nM; as for `Cc1noc(-c2ccc(-c3ccc(C4(C(=O)O)CN(C)C4)cc3)cc2)c1NC(=O)O[C@H](C)c1ccccc1Cl` [Compound 39], 50 to 500 nM; as for `CCNC(=O)N1CC(C(=O)O)(c2ccc(-c3ccc(-c4onc(C)c4NC(=O)O[C@H](C)c4ccccc4Cl)cc3)cc2)C1` [Compound 40], 50 to 500 nM. Compound `C[C@@H](OC(=O)Nc1c(-c2ccc(-c3ccc(C4(C(=O)O)CC4)cc3)cc2)oc2ccccc12)c1ccccc1Cl` [Compound 42] gave an EC50 of less than 50 nM. `Cc1cccc2c(NC(=O)O[C@H](C)c3ccccc3Cl)c(-c3ccc(-c4ccc(C5(C(=O)O)CC5)cc4)cc3)oc12` [Compound 51] returned an EC50 of more than 500 nM. The compound `Cc1ccc2c(NC(=O)O[C@H](C)c3ccccc3Cl)c(-c3ccc(-c4ccc(C5(C(=O)O)CC5)cc4)cc3)oc2c1` [Compound 52] showed an EC50 of more than 500 nM. As to `Cc1ccc2oc(-c3ccc(-c4ccc(C5(C(=O)O)CC5)cc4)cc3)c(NC(=O)O[C@H](C)c3ccccc3Cl)c2c1` [Compound 53], the EC50 was more than 500 nM. As for `C[C@@H](OC(=O)Nc1cnnn1-c1ccc(-c2ccc(C3(C(=O)O)CC3)cc2)cc1)c1ccccc1` [Compound 66], the figure is 50 to 500 nM. As for `Cc1nsc(-c2ccc(-c3ccc(C(C(=O)O)c4ccccc4)cc3)cc2)c1NC(=O)O[C@H](C)c1ccccc1Cl` (some centres unmarked) [Compound 69], the figure is less than 50 nM; as for `Cc1nsc(-c2ccc(-c3ccc(C4(C(=O)O)CC4)cc3)cc2)c1NC(=O)OCc1ccccn1` [Compound 72], more than 500 nM; as for `Cc1nsc(-c2ccc(-c3ccc(C4(C(=O)O)CC4)cc3)cc2)c1NC(=O)OCc1ccccc1F` [Compound 73], 50 to 500 nM. `Cc1noc(-c2ccc(-c3ccc(C4(C(=O)O)CC4)cc3)cc2)c1NC(=O)OC1(c2ccccc2)CC1` [Compound 76] registered a half-maximal effective concentration (EC50) of 50 to 500 nM. Take `Cc1noc2cc(-c3ccc(CC(=O)O)cc3)cc(NC(=O)O[C@H](C)c3ccccc3Cl)c12` [Compound 77]: the EC50 was more than 500 nM. `Cc1nsc(-c2ccc(-c3ccc(C4(C(=O)O)CC4)cc3)cc2)c1NC(=O)O[C@H](C)c1ccccn1` [Compound 84] displayed an EC50 of 50 to 500 nM. For `Cc1ccccc1COC(=O)Nc1c(C)nsc1-c1ccc(-c2ccc(C3(C(=O)O)CC3)cc2)cc1` [Compound 85] the value was 50 to 500 nM. For `Cc1nsc(-c2ccc3cc(C#CC4(C(=O)O)CC4)ccc3c2)c1NC(=O)O[C@H](C)c1ccccc1Cl` [Compound 87] the value was less than 50 nM. `Cc1nsc(-c2ccc3cc(C#CC4(C(=O)O)CC4)ccc3c2)c1NC(=O)O[C@H](C)c1ccccc1` [Compound 88] displayed a concentration giving a half-maximal response (EC50) of 50 to 500 nM. `Cc1nsc(-c2ccc3cc(C#CC4(C(=O)O)CC4)ccc3c2)c1NC(=O)OCc1ccccc1` [Compound 89] gave a 50% effective concentration (EC50) of 50 to 500 nM. As for `Cc1nsc(C#Cc2ccc3cc(CC(=O)O)ccc3c2)c1NC(=O)O[C@H](C)c1ccccc1` [Compound 90], the figure is 50 to 500 nM.

In turn, `Cc1nsc(C#Cc2ccc3cc(CC(=O)O)ccc3c2)c1NC(=O)OCc1ccccc1` [Compound 91] displayed an EC50 of more than 500 nM.

Take `Cc1nsc(C#Cc2ccc3cc(C4(C(=O)O)CC4)ccc3c2)c1NC(=O)O[C@H](C)c1ccccc1` [Compound 92]: the EC50 is less than 50 nM.

`Cc1nsc(C#Cc2ccc3cc(C4(C(=O)O)CC4)ccc3c2)c1NC(=O)O[C@H](C)c1ccccc1Cl` [Compound 93] showed an EC50 of less than 50 nM. As for `Cc1nsc(C#Cc2ccc3cc(CC(=O)O)ccc3c2)c1NC(=O)O[C@H](C)c1ccccc1Cl` [Compound 94], the figure is 50 to 500 nM. As for `Cc1nsc(-c2ccc(-c3ccc(C4(C(=O)O)CC4)cc3)cc2)c1NC(=O)OC(C)C` [Compound 95], the figure is more than 500 nM; as for `Cc1nsc(-c2ccc(-c3ccc(C4(C(=O)O)CC4)cc3)cc2)c1NC(=O)OCc1cccc(F)c1` [Compound 96], less than 50 nM. For `Cc1nsc(-c2ccc(-c3ccc(C4(C(=O)O)CC4)cc3)cc2)c1NC(=O)OCc1cccc(Cl)c1` [Compound 97], the EC50 was less than 50 nM. For `Cc1nsc(-c2ccc(-c3ccc(C4(C(=O)O)CC4)cc3)cc2)c1NC(=O)OCc1ccc(F)cc1` [Compound 98] the value was 50 to 500 nM; for `Cc1nsc(-c2ccc(-c3ccc(C4(C(=O)O)CC4)cc3)cc2)c1NC(=O)OCc1ccc(Cl)cc1Cl` [Compound 99], more than 500 nM. As for `Cc1nsc(-c2ccc(-c3ccc(C4(C(=O)O)CC4)cc3)cc2)c1NC(=O)OCc1ccc(Cl)cc1` [Compound 100], the figure is 50 to 500 nM. `Cc1nsc(-c2ccc(-c3ccc(C4(C(=O)O)CC4)cc3)cc2)c1NC(=O)OCc1cccc(Cl)c1Cl` [Compound 101] showed a concentration giving a half-maximal response (EC50) of more than 500 nM. For `Cc1nsc(-c2ccc(-c3ccc(C4(C(=O)O)CC4)cc3)cc2)c1NC(=O)OCc1ccc(F)cc1Cl` [Compound 102] the value was 50 to 500 nM. For `Cc1nsc(-c2ccc(-c3ccc(C4(C(=O)O)CC4)cc3)cc2)c1NC(=O)OCc1cccc(F)c1Cl` [Compound 103] the value was 50 to 500 nM.

Consider `Cc1nsc(-c2ccc(-c3ccc4c(ccn4CC(=O)O)c3)cc2)c1NC(=O)O[C@H](C)c1ccccc1Cl` [Compound 104], for which the EC50 was more than 500 nM. The compound `C[C@@H](OC(=O)Nc1scnc1-c1ccc(-c2ccc(C3(C(=O)O)CC3)cc2)cc1)c1ccccc1` [Compound 106] came in with an EC50 of 50 to 500 nM. For the compound `O=C(Nc1scnc1-c1ccc(-c2ccc(C3(C(=O)O)CC3)cc2)cc1)OCc1ccccc1` [Compound 108], the EC50 lay in the range of 50 to 500 nM. As for `C[C@@H](OC(=O)Nc1ncsc1-c1ccc(-c2ccc(C3(C(=O)O)CC3)cc2)cc1)c1ccccc1` [Compound 109], the figure is 50 to 500 nM; as for `C[C@@H](OC(=O)Nc1ncsc1-c1ccc(-c2ccc(C3(C(=O)O)CC3)cc2)cc1)c1ccccc1Cl` [Compound 110], 50 to 500 nM; as for `O=C(Nc1ncsc1-c1ccc(-c2ccc(C3(C(=O)O)CC3)cc2)cc1)OCc1ccccc1` [Compound 111], more than 500 nM. For `C[C@@H](OC(=O)Nc1c(Cl)nsc1-c1ccc(-c2ccc(C3(C(=O)O)CC3)cc2)cc1)c1ccccc1` [Compound 112] the value was less than 50 nM. For `C[C@@H](OC(=O)Nc1cnsc1-c1ccc(-c2ccc(C3(C(=O)O)CC3)cc2)cc1)c1ccccc1` [Compound 114] the value was less than 50 nM. The compound `Cc1cc(-c2ccc(C3(C(=O)O)CC3)cc2)ccc1-c1snc(C)c1NC(=O)O[C@H](C)c1ccccc1Cl` [Compound 115] returned a 50% effective concentration (EC50) of less than 50 nM.

For `Cc1cc(-c2snc(C)c2NC(=O)O[C@H](C)c2ccccc2Cl)ccc1-c1ccc(C2(C(=O)O)CC2)cc1` [Compound 116], the EC50 is less than 50 nM.

The compound `Cc1nsc(-c2ccc(-c3ccc(C4(C(=O)O)CC4)cc3)c(F)c2)c1NC(=O)O[C@H](C)c1ccccc1Cl` [Compound 117] registered an EC50 of less than 50 nM.

As usually defined, the EC50 is the concentration at which the effect is half-maximal.
